Results taken from the OligoGym collection.
“And” between values parts separate entries of the source, which are not always exact repeats. Equal values may be shown once. After the bases stand the sugars from the 5' end (letter, count) and the backbone: PS all phosphorothioate, else s phosphorothioate and o phosphodiester by linkage. Methylation of C is not given here. k = constrained ethyl (cEt); d = 2'-deoxy (DNA)

Each sequence was assayed against MALAT1. Conditions: ASO, A431, 0.005 µM.

Point of comparison: CTGTGGTTTTAATACC (sugars k3 d10 k3, PS), target mRNA inhibition 51%. Against it:
- CCGGAGCAGGAAGAAA (sugars k3 d10 k3, PS) — lower, 23%
- CCGTCCTGGAAACCAG (sugars k3 d10 k3, PS) — lower, 16%
- CCTACAACACCCGGAA (sugars k3 d10 k3, PS) — lower, 0%
- CCTACCGCACAGCTCG (sugars k3 d10 k3, PS) — lower, 3%
- CCTACTGAAGAGCATT (sugars k3 d10 k3, PS) — lower, 25%
- CCTACTTTAAGCCTTC (sugars k3 d10 k3, PS) — lower, 35%
- CCTATCTTCTCCAGTC (sugars k3 d10 k3, PS) — lower, -13%
- CCTCAATCCACTTGAT (sugars k3 d10 k3, PS) — lower, -2%
- CCTCACGGATTTTTAC (sugars k3 d10 k3, PS) — lower, -1%
- CCTCAGTTACACATCC (sugars k3 d10 k3, PS) — lower, 49%
- CCTCCTCCGTGTGGTT (sugars k3 d10 k3, PS) — lower, 32%
- CCTGATCTGGTCCATT (sugars k3 d10 k3, PS) — lower, 44%
- CCTGCTACCTTCATCA (sugars k3 d10 k3, PS) — lower, 22%
- CCTTCCGCCGCCTCTT (sugars k3 d10 k3, PS) — lower, 3%
- CCTTTATCACTCAGCT (sugars k3 d10 k3, PS) — higher, 54%
- CCTTTGTGAGGGAGGC (sugars k3 d10 k3, PS) — lower, -5%
- CGAGAAATCGGAGCAG (sugars k3 d10 k3, PS) — lower, 22%
- CGCAGACAAAGTTTCT (sugars k3 d10 k3, PS) — higher, 57%
- CGCAGGGATTTGAACC (sugars k3 d10 k3, PS) — lower, 15%
- CGCCATGGAAAGCGAG (sugars k3 d10 k3, PS) — lower, 20%
- CGCCGCCTCTTAAAGC (sugars k3 d10 k3, PS) — lower, 13%
- CGCTAAGATGCTAGCT (sugars k3 d10 k3, PS) — lower, -6%
- CGCTCCTTCCTGGAAT (sugars k3 d10 k3, PS) — lower, -19%
- CGGACTTTCTCCCCCA (sugars k3 d10 k3, PS) — lower, -9%
- CGGCCCCCCAGTTGCC (sugars k3 d10 k3, PS) — lower, 17%
- CGGTTAAAAATAGGTT (sugars k3 d10 k3, PS) — lower, 6%
- CGTCCCCATATAAATC (sugars k3 d10 k3, PS) — lower, 1%
- CGTCCTGGAAACCAGG (sugars k3 d10 k3, PS) — lower, 21%
- CGTTAAAAACTTAACG (sugars k3 d10 k3, PS) — lower, 13%
- CGTTACCTTGAAACCG (sugars k3 d10 k3, PS) — lower, 36%
- CTAAAAGCATTGCCCT (sugars k3 d10 k3, PS) — lower, 35%
- CTAAGAGACATTCAAG (sugars k3 d10 k3, PS) — lower, 27%
- CTACAACACCCGGAAA (sugars k3 d10 k3, PS) — lower, 33%
- CTACAAGTTACATGTT (sugars k3 d10 k3, PS) — lower, -9%
- CTACAGACAAACACTA (sugars k3 d10 k3, PS) — lower, 6%
- CTACTCTTCTAAGTCT (sugars k3 d10 k3, PS) — lower, 49%
- CTAGATTCACTGAATC (sugars k3 d10 k3, PS) — lower, 7%
- CTATACTTCTCCAATA (sugars k3 d10 k3, PS) — lower, -13%
- CTATTCTTTTCTTCGC (sugars k3 d10 k3, PS) — lower, 37%
- CTCACGGATTTTTACC (sugars k3 d10 k3, PS) — lower, 7%
- CTCAGGGTTATGCTTA (sugars k3 d10 k3, PS) — lower, 40%
- CTCAGTCCTAGCTTCA (sugars k3 d10 k3, PS) — lower, 42%
- CTCCAGCATAAAGCTG (sugars k3 d10 k3, PS) — lower, 12%
- CTCCCCCCCGCCTCAG (sugars k3 d10 k3, PS) — lower, 12%
- CTCGATGGAAAAATTT (sugars k3 d10 k3, PS) — lower, 8%
- CTCGGGCTGCAGGCTG (sugars k3 d10 k3, PS) — lower, 19%
- CTCTAATCACTGTCAA (sugars k3 d10 k3, PS) — lower, 11%
- CTCTGATCTGCGGCCC (sugars k3 d10 k3, PS) — lower, -6%
- CTGAAAGAACTAGTGG (sugars k3 d10 k3, PS) — lower, 20%
- CTGAAATCCCCTAGGG (sugars k3 d10 k3, PS) — lower, 30%
- CTGAAGAGCATTGGAG (sugars k3 d10 k3, PS) — lower, 50%
- CTGAAGTCAAGACAAC (sugars k3 d10 k3, PS) — lower, -17%
- CTGCGCTTAAGAGGGC (sugars k3 d10 k3, PS) — lower, 34%
- CTGCTCGCCTCCTCCG (sugars k3 d10 k3, PS) — lower, 16%
- CTGGAAAAGCTAGGGA (sugars k3 d10 k3, PS) — lower, -13%
- CTGTAAACCTGTGGTG (sugars k3 d10 k3, PS) — lower, 15%
- CTGTGGTGGTCTGATT (sugars k3 d10 k3, PS) — lower, 33%
- CTGTGTTATGCCTGGT (sugars k3 d10 k3, PS) — lower, -3%
- CTTAAGAGGGCAGGAG (sugars k3 d10 k3, PS) — lower, -4%
- CTTATCCCTAACATGC (sugars k3 d10 k3, PS) — lower, 41%
- CTTATTTAGAGGGCCT (sugars k3 d10 k3, PS) — lower, 36%
- CTTCAACAATCACTAC (sugars k3 d10 k3, PS) — lower, 2%
- CTTCAACTGGGAATAC (sugars k3 d10 k3, PS) — lower, 7%
- CTTCACCACGAACTGC (sugars k3 d10 k3, PS) — lower, 43%
- CTTCATGACCCTACTG (sugars k3 d10 k3, PS) — lower, 36%
- CTTCATTACCCCAACT (sugars k3 d10 k3, PS) — lower, 14%
- CTTCGGTGCCTTTAGT (sugars k3 d10 k3, PS) — lower, 23%
- CTTCTATAGTCTGAAG (sugars k3 d10 k3, PS) — lower, 18%
- CTTCTATTGGTATTAA (sugars k3 d10 k3, PS) — lower, 18%
- CTTCTGAACCGGAGCA (sugars k3 d10 k3, PS) — lower, -27%
- CTTGAAGACTGTTGCT (sugars k3 d10 k3, PS) — lower, 42%

With CCTTAGTTGGCATCAA (sugars k3 d10 k3, PS) the target mRNA inhibition was 82% and 63%.
With CCTTCGGATGCTTCAC (sugars k3 d10 k3, PS) the target mRNA inhibition was 58% and 78%.
In the case of CCTTCGGTTTAATCTC (sugars k3 d10 k3, PS), the target mRNA inhibition is reported as 61% and 58%.
In the case of CCTTTCATAGAGCCTT (sugars k3 d10 k3, PS), the target mRNA inhibition is reported as 69% and 90%.
For CTGATTCTAACAGCAC (sugars k3 d10 k3, PS), the target mRNA inhibition was 55% and 49% and 50%.
CTGATTTTAAGGTTGC (sugars k3 d10 k3, PS) was tested, and the target mRNA inhibition was 80% and 86%.
For CTTCAAGCACCGCTTG (sugars k3 d10 k3, PS), the target mRNA inhibition was 21% and 28%.
CTTCGGTTTAATCTCT (sugars k3 d10 k3, PS) was tested, and the target mRNA inhibition was 73% and 54%.
With CTTGAGATTTGGGCTT (sugars k3 d10 k3, PS) the target mRNA inhibition was 12% and 2%.
